Experimental findings from patent publication US8753644B2, “Grass peptides for vaccine” (Circassia Limited, priority 2009, dated 2014) are described below.

The solubility is how much of the substance goes into solution per volume. Higher therefore signals much dissolved substance.

No end group written: not given here.

Data set [1] relates to peripheral blood mononuclear cells (PBMCs) from grass allergic individuals. Kind of data set: In vitro T cell cytokine release assay (IFN-γ, IL-10, IL-13) in PBMC cultures. It counts as cell-based, human. Conditions: single peptide; for ≧9/28 +ve for one or more cytokine?: group of 28 subjects; for IFN-γ +ve/28 / IL-10 +ve/28 / IL-13 +ve/28: number of 28 grass allergic subjects positive (reading > four times control well).

Data set [2] can be described thus: Solubility of peptides.
Data set [3] can be described thus: physchem.

In the case of “Bio04: Group 5 peptide of Table 2, sequence only in drawing (TALKKAVTAMSEAEKEA)”, in data set [1], the “≧9/28 +ve for one or more cytokine?” value is on record as “Yes”, the “IFN-γ +ve/28” value was 12 +ve/28, the “IL-10 +ve/28” value was 8 +ve/28 and the “IL-13 +ve/28” value is 5 +ve/28.
For “Bio05: Group 5 peptide of Table 2, sequence only in drawing (NDKFTVFESAFNKALNE)”, in data set [1], the “≧9/28 +ve for one or more cytokine?” value is reported as “Yes”, the “IFN-γ +ve/28” value is listed as 11 +ve/28, the “IL-10 +ve/28” value is given as 1 +ve/28 and the “IL-13 +ve/28” value is given as 5 +ve/28.
FIPMKSSWGA [Ber02] registered a solubility in data set [2] of over 20000 µg/mL.
Still for that read-out and setting: next, KDSDEFIPMKSSWGAIWR [Ber02B]: over 20000 µg/mL.
As for KFIPTLVAAVKQAYAAKQ [Bio03A], the solubility in data set [2] was over 20000 µg/mL.
Still for that read-out and setting: for KKPEVKYAVFEAALTKAIT [Rye09B2] the value was 10000 µg/mL; for KPEVKYAVFEAALTKAIT [Rye09B1], 10000 µg/mL; for KSSWGAIWRIDPKKPLK [Ber02C], over 20000 µg/mL.
On to KYDAYVATLTEALR [Bio02A], for which, in data set [2], the solubility was over 20000 µg/mL.
On the same count and under the same terms, next, LKKAVTAMSEAEK [Bio04A]: over 20000 µg/mL; NAGFKAAVAAAANAPPK [Rye05C]: 10000 µg/mL; PEVKYAVFEAALTKAIT [Rye09B]: 5000 µg/mL.
“SGKAFGAMAKKGQED [Ber01, SGKAFGAMAKKGQED]” gave a solubility in data set [3] of over 20000 µg/mL.
WGAIWRIDTPDKL [Tim04A] displayed a solubility in data set [2] of 2000 µg/mL.
